Consider 1 molecule from patent publication US12215351B2, “Methods for inducing hematopoietic stem cell specificity” (THE CHILDREN'S MEDICAL CENTER CORPORATION, priority 2017, dated 2025).

The subject of assay [1] is human iPSC-derived hemogenic endothelium cells. Nature of the assay: Human EHT culture of iPSC-derived hemogenic endothelium, FACS for CD34 and CD45. The note with it: day 6 of EHT. It counts as cell-based. On the procedure: (§1) Human iPSCs were cultured and differentiated into embryoid bodies as previously described^28. At day 8 of embryoid body differentiation, HE cells were magnetically purified for EHT, and treated with DMSO or Ro5-3335. FACS analysis for CD34 and CD45 was performed at day 6 of EHT using an LSRFortessa™ (BD Biosciences). In the case of the RUNX1c-reporter cell line^21, RUNX1c activity was analyzed at day 4 of EHT using an LSR Fortessa (BD Biosciences).

Assay [2] relates to Runx1:GFP+ cells derived from the zebrafish embryo culture. In words: Zebrafish transplantation of cultured Runx1:GFP+ cells into casper recipients, whole kidney marrow FACS. It counts as in vivo. To be noted: cells cultured 2 days with 50 μM, analyzed approximately 3 months post-transplant. On the procedure:
Runx1:GFP ubi:mCherry embryos were dissociated at 24 hpf and plated with 50 μM Ro5-3335 or DMSO. After two days in culture, double-positive cells were sorted and transplanted into 48 hpf casper recipients as previously described^10. The recipients were grown to adulthood and the whole kidney marrow was dissected at approximately 3 months and analyzed in an LSRII (BD Biosciences). As negative and positive controls, the kidney marrow of two casper adults and one Runx1:GFP ubi:mCherry adult were analyzed.

Assay [3] concerns Runx1:GFP positive cells in the CHT. In words: Runx1:GFP positive cells in the CHT of live embryos (confocal imaging). Type of assay: in vivo, zebrafish. The note with it: 5 μM. On the procedure: Transgenic Runx1:GFP embryos from the same clutch were treated at the time points indicated (n>10 embryos per treatment group) with 5 μM Ro5-3335 diluted in E3. Live embryos were embedded in 0.8% low-melting point agarose containing 0.04 mg/mL Tricaine and imaged on a Nikon Eclipe Ti microscope with 20× Plan-Apo DIC N.A. 0.75. CHT cells were counted blindly in Z-stack image projections processed on Imaris software (Bitplane).

A further assay concerns RUNX1c+24 reporter. Nature of the assay: RUNX1c-enhancer reporter cell line undergoing EHT. To be noted: day 4 of EHT. Type of assay: cell-based, human. On the procedure:
as §1

In assay [4] the test system is iPSC-derived human hemogenic endothelium cells. In words: Intrafemoral transplantation of treated human HE cells into NOD/LtSz-scidIL2Rgnull mice. Type of assay: in vivo. To be noted: HE cells treated with 25 μM, 6 weeks post-transplant. On the procedure: Intrafemoral transplantations were performed as described previously^28. NOD/LtSz-scidIL2Rgnull mice (Jackson Laboratory) were transplanted with approximately 100,000 HE cells at day 4 that were treated with 25 μM Ro5-3335 or DMSO. Due to the limited cell number that can be obtained during EHT, the transplants were performed over the course of several weeks.

A further assay deals with Runx1:GFP. In words: High-throughput image-based chemical screen in Runx1:GFP zebrafish embryo cultures. It counts as cell-based. To be noted: confirmed by a dose response curve. On the procedure: Stage-matched zebrafish embryos were dissociated at 24 hpf and grown in medium composed of 85% LDF medium, 5% FBS, and 10% embryo extract. LDF medium contains 50% Leibowitz's L-15 (Invitrogen), 20% DMEM (Invitrogen), and 30% DMEM/F-12 (Invitrogen), supplemented with 2% B27 (Gibco), 15 mM HEPES (Gibco), 1% L-glutamine (Gibco), 1% N2 (Gibco), 10 nM sodium selenite (Sigma), 0.018% sodium bicarbonate (Gibco), 0.04% Primocin (Invivogen), and 0.2% Penicillin-Streptomycin (Gibco). All zebrafish experiments and procedures were performed as per protocols approved by the Boston Children's Hospital IACUC.
To screen each chemical library plate in duplicate, two 384-well plates were coated with 0.1% gelatin. Runx1:GFP^10 embryos at 24 hpf were washed with E3 embryo water and dechorionated with pronase. Embryos were washed with E3 embryo water, resuspended in blastomere media, mechanically homogenized, and filtered through a 40 µm nylon mesh filter. […]
A 4× image of the nuclear and fluorescent expression from the entire well was then thresholded and percent area was computed using ImageJ/Fiji. […] From that standard curve, residuals were calculated for each treated well and divided by the standard deviation in the control wells to obtain the z-score of each chemical treatment. […]

The structures appear in SMILES notation.

For the molecule `O=C1CN=C(c2ccc[nH]2)c2cc(Cl)ccc2N1` [Ro5-3335, 7-Chloro-1,3-dihydro-5-(1H-pyrrol-2-yl)-2H-1,4-benzodiazepin-2-one], in assay [1], the “CD34+CD45+ cells” value is on record as “significant increase”. Further, the “GFP+ chimerism in kidney marrow of adult casper recipients” value in assay [2] is on record as “enhanced”. In assay [3] (treated 24-30 hpf, imaged at 54 hpf), the “number of Runx1:GFP+ cells in the CHT at 54 hpf” value is listed as “significant increase”. Further, the “number of Runx1:GFP+ cells in the CHT at 72 hpf” value in assay [3] (treated 24-30 hpf, same embryos at 72 hpf) is reported as “A significant difference at 72 hpf was not observed”. For the same molecule, the “Runx1:GFP positive cells in the CHT” value in assay [3] (treated 24-48 hpf, imaged at 54 hpf) was “increased”; in assay [3] (treated 24-54 hpf, imaged at 54 hpf), “increased”; in assay [3] (treated 24-72 hpf, imaged at 72 hpf), “increased”. For the same molecule, the RUNX1c reporter activity result in the assay on RUNX1c+24 reporter is reported as “dose-dependent effect”. Further, the “B- and T-cells (CD19, CD3)” value in assay [4] is on record as “not detected”. Further, the “engraftment in the contralateral leg” value in assay [4] is “no engraftment detected”. Further, in assay [4], the “engraftment of myeloid cells (CD33)” value was “clear population expressing the myeloid marker CD33”. Moreover, the “chimerism of human CD45+ cells in the bone marrow” value in assay [4] (one mouse) was determined as 0.017%. In the assay on Runx1:GFP, the “GFP signal in the embryo cultures” value was “increased”.
